Data reported in paper PMC7915026, “Sulfaguanidine Hybrid with Some New Pyridine-2-One Derivatives: Design, Synthesis, and Antimicrobial Activity against Multidrug-Resistant Bacteria as Dual DNA Gyrase and DHFR Inhibitors” (Antibiotics, 2021).
Values after ≈ are worked out from the molar mass of the structure shown. Read-outs that look alike come from different tables or passages of the source.

Columns and labels:
Type in all cases: cell-based
E. faecalis ATCC 29212 [1] = experiment: MIC and MBC determination
[2] = test system: Gram-positive and Gram-negative bacteria
B. subtilis ATCC 6633 [3] = experiment: MIC and MBC determination
S. aureus ATCC 29213 [4] = experiment: MIC and MBC determination; settings: Staphylococcus aureus, ATCC29213
E. coli ATCC 25922 [5] = experiment: MIC and MBC determination
S. typhi ATCC 6539 = experiment: Inhibition zone, paper disk/agar diffusion
Summary of the method: (§1)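 Norfloxacin was included as a positive control. Compounds diffused into seeded agar, and zones of inhibition were recorded as diameter (mm).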

E. coli ATCC 25922 [6] = experiment: Inhibition zone, paper disk/agar diffusion
Summary of the method: as §1

S. aureus ATCC 29213 [7] = experiment: Inhibition zone, paper disk/agar diffusion
Summary of the method: as §1

B. subtilis ATCC 6633 [8] = experiment: Inhibition zone, paper disk/agar diffusion
Summary of the method: as §1

E. faecalis ATCC 29212 [9] = experiment: Inhibition zone, paper disk/agar diffusion
Summary of the method: as §1

P. aeruginosa ATCC 27853 [10] = experiment: Inhibition zone, paper disk/agar diffusion
Summary of the method: as §1

[11] = test system: Salmonella typhi (S. typhi ATCC 6539); experiment: microbe, parasite or virus in culture; settings: Salmonella enterica
P. aeruginosa ATCC 27853 [12] = experiment: MIC and MBC determination; settings: Pseudomonas aeruginosa, ATCC27853
[13] = Enterococcus faecalis, ATCC29212
[14] = Gram-negative: E. coli, P. aeruginosa, S. typhi

Molecule `CN(C)[C@@H]1C(O)=C(C(N)=O)C(=O)[C@@]2(O)C(O)=C3C(=O)c4c(O)cccc4[C@@](C)(O)[C@H]3C[C@@H]12` [Tetracycline, tetracycline, reference compound] has an MBC (E. faecalis ATCC 29212 [1]) of 210.9 ± 1.78 µM (≈ 93.7 µg/mL), an MIC (E. faecalis ATCC 29212 [1]) of 140.6 ± 1.98 µM (≈ 62.5 µg/mL) and an MBC (E. faecalis ATCC 29212 [1]; [13]) of 211 µM (≈ 93.7 µg/mL). For the same molecule, the MIC (E. faecalis ATCC 29212 [1]; [13]) was 141 µM (≈ 62.5 µg/mL), the MBC range [2, 14] was 42.16 to 196.89 µM and the MIC range [2, 14] was 35.14 to 140.6 µM. The MBC range ([2]; Gram-positive bacteria) was 91.40 to 210.9 µM, the MIC range ([2]; Gram-positive bacteria) was 70.31 to 140.63 µM and the MBC (B. subtilis ATCC 6633 [3]) was 91.40 ± 2.89 µM (≈ 40.6 µg/mL). For the same molecule, the MIC (B. subtilis ATCC 6633 [3]) was 70.31 ± 2.65 µM (≈ 31.2 µg/mL), the MBC (B. subtilis ATCC 6633 [3]; Bacillus subtilis, ATCC6633) was 91.4 µM (≈ 40.6 µg/mL) and the MIC (B. subtilis ATCC 6633 [3]; Bacillus subtilis, ATCC6633) was 70.3 µM (≈ 31.2 µg/mL). For the same molecule, the MBC (S. aureus ATCC 29213 [4]) was 197 ± 3.54 µM (≈ 87.5 µg/mL), the MIC (S. aureus ATCC 29213 [4]) was 141 ± 3.21 µM (≈ 62.5 µg/mL) and the MBC (E. coli ATCC 25922 [5]) was 42.16 ± 0.92 µM (≈ 18.7 µg/mL). It also gave an MIC (E. coli ATCC 25922 [5]) of 35.14 ± 0.87 µM (≈ 15.6 µg/mL), an MBC (E. coli ATCC 25922 [5]; Escherichia coli, ATCC25922) of 42.2 µM (≈ 18.7 µg/mL) and an MIC (E. coli ATCC 25922 [5]; Escherichia coli, ATCC25922) of 35.1 µM (≈ 15.6 µg/mL). The “Mean Diameter of the Inhibition Zone” value (S. typhi ATCC 6539) was 21 ± 0.55 mm, the “Mean Diameter of the Inhibition Zone” value (E. coli ATCC 25922 [6]) was 23 ± 0.20 mm and the “Mean Diameter of the Inhibition Zone” value (S. aureus ATCC 29213 [7]) was 25 ± 0.11 mm. For the same molecule, the “Mean Diameter of the Inhibition Zone” value (B. subtilis ATCC 6633 [8]) was 25 ± 0.22 mm, the “Mean Diameter of the Inhibition Zone” value (E. faecalis ATCC 29212 [9]) was 22 ± 0.25 mm and the “Mean Diameter of the Inhibition Zone” value (P. aeruginosa ATCC 27853 [10]) was 20 ± 0.5 mm. The MBC [11] was 98.44 ± 0.87 µM (≈ 43.8 µg/mL), the MIC [11] was 70.3 ± 1.06 µM (≈ 31.2 µg/mL) and the MBC (P. aeruginosa ATCC 27853 [12]) was 197 ± 2.36 µM (≈ 87.5 µg/mL). It also gave an MIC (P. aeruginosa ATCC 27853 [12]) of 141 ± 2.85 µM (≈ 62.5 µg/mL).
